Experimental data from US20240116985A1, “STAPLED PEPTIDES AND METHODS THEREOF” (priority 2020, published 2024).

Target: T1, full-length beta-Catenin (Uniprot ID P35222) (Homo sapiens, UniProt P35222)
T1 construct: 10 nM full-length beta-Catenin (Uniprot ID P35222)
T1 sequence (P35222 1-781): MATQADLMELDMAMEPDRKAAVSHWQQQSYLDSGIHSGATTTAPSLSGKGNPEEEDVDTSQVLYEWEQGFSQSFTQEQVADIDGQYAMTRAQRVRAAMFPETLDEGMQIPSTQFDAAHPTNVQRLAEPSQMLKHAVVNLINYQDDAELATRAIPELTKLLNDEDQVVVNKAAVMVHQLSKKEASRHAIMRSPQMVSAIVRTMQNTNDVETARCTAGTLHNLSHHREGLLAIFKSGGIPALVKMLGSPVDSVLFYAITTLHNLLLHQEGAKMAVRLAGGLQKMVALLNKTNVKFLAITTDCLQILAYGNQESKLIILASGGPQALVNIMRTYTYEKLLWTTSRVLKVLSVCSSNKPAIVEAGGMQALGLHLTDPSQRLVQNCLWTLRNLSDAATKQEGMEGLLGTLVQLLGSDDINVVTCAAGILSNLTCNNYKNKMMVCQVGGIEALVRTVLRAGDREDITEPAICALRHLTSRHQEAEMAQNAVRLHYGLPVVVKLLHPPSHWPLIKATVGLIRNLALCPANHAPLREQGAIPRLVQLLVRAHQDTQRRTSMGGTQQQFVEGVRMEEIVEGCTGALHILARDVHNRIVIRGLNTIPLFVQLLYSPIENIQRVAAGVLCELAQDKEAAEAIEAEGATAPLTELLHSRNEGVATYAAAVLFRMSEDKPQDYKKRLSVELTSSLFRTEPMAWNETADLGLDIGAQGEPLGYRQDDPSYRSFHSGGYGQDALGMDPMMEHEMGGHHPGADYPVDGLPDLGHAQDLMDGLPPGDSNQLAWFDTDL
Experiment: Fluorescence polarization IC50 (beta-catenin / 5FAM-TCF4 10-53 competition)
Format: binding
Conditions: fluorescence polarization; read-out: beta-Catenin FP IC50

Row | IC50 [nM] | Structure (SMILES)
1 | 357 | CC(=O)N1CCC[C@]12CC=CCCCC1(CCCC=CCCCOC(=O)N3CC[C@@](C(=O)N[C@@H](Cc4ccsc4)C(=O)N[C@@H](Cc4csc5ccccc45)C(=O)N[C@@H](CCC(N)=O)C(N)=O)(C3)NC(=O)[C@H](CC(N)=O)NC(=O)[C@H](Cc3ccccc3)NC(=O)[C@H](C)NC(=O)[C@H](CCCCNC(C)C)NC(=O)[C@H]([C@@H](C)O)NC(=O)[C@H](CC(N)=O)NC1=O)NC(=O)[C@H](CC(C)(C)C)NC(=O)[C@H](CC(=O)O)NC2=O (stereo partly drawn) [I-2005, Ac-PL3-Asp-Npg-B5-Asn-Thr-iPrLys-Ala-Phe-Asn-PyrS2-3Thi-BztA-Gln-NH2]
2 | 285 | CC(=O)N1CCC[C@]12CC=CCCCC1(CCCC=CCCCOC(=O)N3CC[C@@](C(=O)N[C@@H](Cc4ccsc4)C(=O)N[C@@H](Cc4csc5ccccc45)C(=O)N[C@@H](CCC(N)=O)C(N)=O)(C3)NC(=O)[C@H](CC(N)=O)NC(=O)[C@H](Cc3ccccc3)NC(=O)[C@H](CCCCNC(C)C)NC(=O)[C@H](C)NC(=O)[C@H]([C@@H](C)O)NC(=O)[C@H](CC(N)=O)NC1=O)NC(=O)[C@H](CC(C)(C)C)NC(=O)[C@H](CC(=O)O)NC2=O (stereo partly drawn) [I-2006, Ac-PL3-Asp-Npg-B5-Asn-Thr-Ala-iPrLys-Phe-Asn-PyrS2-3Thi-BztA-Gln-NH2]
3 | 8830 | CC(=O)N1CCC[C@]12CC=CCCCC1(CCCC=CCCCOC(=O)N3CC[C@@](C(=O)N[C@@H](Cc4ccsc4)C(=O)N[C@@H](Cc4csc5ccccc45)C(=O)N[C@@H](CCC(N)=O)C(N)=O)(C3)NC(=O)[C@H](CC(N)=O)NC(=O)[C@H](CCc3ccccc3)NC(=O)[C@H](C)NC(=O)[C@H](C)NC(=O)[C@H]([C@@H](C)O)NC(=O)[C@H](CC(N)=O)NC1=O)NC(=O)[C@H](CC(C)(C)C)NC(=O)[C@H](CC(=O)O)NC2=O (stereo partly drawn) [I-2008, Ac-PL3-Asp-Npg-B5-Asn-Thr-Ala-Ala-hPhe-Asn-PyrS2-3Thi-BztA-Gln-NH2]
4 | 1480 | CC(=O)N1CCC[C@]12CC=CCCCC1(CCCC=CCCCOC(=O)N3CC[C@@](C(=O)N[C@@H](Cc4ccsc4)C(=O)N[C@@H](Cc4csc5ccccc45)C(=O)N[C@@H](CCC(N)=O)C(N)=O)(C3)NC(=O)[C@H](CC(N)=O)NC(=O)[C@H](Cc3cccc(C(F)(F)F)c3)NC(=O)[C@H](C)NC(=O)[C@H](C)NC(=O)[C@H]([C@@H](C)O)NC(=O)[C@H](CC(N)=O)NC1=O)NC(=O)[C@H](CC(C)(C)C)NC(=O)[C@H](CC(=O)O)NC2=O (stereo partly drawn) [I-2009, Ac-PL3-Asp-Npg-B5-Asn-Thr-Ala-Ala-3F3MeF-Asn-PyrS2-3Thi-BztA-Gln-NH2]
5 | 1970 | CC(=O)N1CCC[C@]12CC=CCCCC1(CCCC=CCCCOC(=O)N3CC[C@@](C(=O)N[C@@H](Cc4ccsc4)C(=O)N[C@@H](Cc4csc5ccccc45)C(=O)N[C@@H](CCC(N)=O)C(N)=O)(C3)NC(=O)[C@H](CC(N)=O)NC(=O)[C@H](Cc3cccc(C(F)(F)F)c3)NC(=O)[C@H](C)NC(=O)[C@H](C)NC(=O)[C@H]([C@@H](C)O)NC(=O)[C@H](CC(N)=O)NC1=O)NC(=O)[C@H](CC(C)(C)C)NC(=O)[C@H](CC(=O)O)NC2=O (stereo partly drawn) [I-2010, Ac-PL3-Asp-Npg-B5-Asn-Thr-Ala-Ala-3F3MeF-Asn-PyrS2-3Thi-BztA-Gln-NH2]
6 | 661 | CC(=O)N1CCC[C@]12CC=CCCCC1(CCCC=CCCCOC(=O)N3CC[C@@](C(=O)N[C@@H](Cc4ccsc4)C(=O)N[C@@H](Cc4csc5ccccc45)C(=O)N[C@@H](CCC(N)=O)C(N)=O)(C3)NC(=O)[C@H](CC(N)=O)NC(=O)[C@H](Cc3cccc(Cl)c3)NC(=O)[C@H](C)NC(=O)[C@H](C)NC(=O)[C@H]([C@@H](C)O)NC(=O)[C@H](CC(N)=O)NC1=O)NC(=O)[C@H](CC(C)(C)C)NC(=O)[C@H](CC(=O)O)NC2=O (stereo partly drawn) [I-2013, Ac-PL3-Asp-Npg-B5-Asn-Thr-Ala-Ala-3C1F-Asn-PyrS2-3Thi-BztA-Gln-NH2]
7 | 1180 | CC(=O)N1CCC[C@]12CC=CCCCC1(CCCC=CCCCOC(=O)N3CC[C@@](C(=O)N[C@@H](Cc4ccsc4)C(=O)N[C@@H](Cc4csc5ccccc45)C(=O)N[C@@H](CCC(N)=O)C(N)=O)(C3)NC(=O)[C@H](CC(N)=O)NC(=O)[C@H](Cc3cccc(Cl)c3)NC(=O)[C@H](C)NC(=O)[C@H](C)NC(=O)[C@H]([C@@H](C)O)NC(=O)[C@H](CC(N)=O)NC1=O)NC(=O)[C@H](CC(C)(C)C)NC(=O)[C@H](CC(=O)O)NC2=O (stereo partly drawn) [I-2014, Ac-PL3-Asp-Npg-B5-Asn-Thr-Ala-Ala-3C1F-Asn-PyrS2-3Thi-BztA-Gln-NH2]
8 | 522 | CC(=O)N1CCC[C@]12CC=CCCCC1(CCCC=CCCCOC(=O)N3CC[C@@](C(=O)N[C@@H](Cc4ccsc4)C(=O)N[C@@H](Cc4csc5ccccc45)C(=O)N[C@@H](CCC(N)=O)C(N)=O)(C3)NC(=O)[C@H](CC(N)=O)NC(=O)[C@H](Cc3ccc(O)cc3)NC(=O)[C@H](C)NC(=O)[C@H](C)NC(=O)[C@H]([C@@H](C)O)NC(=O)[C@H](CC(N)=O)NC1=O)NC(=O)[C@H](CC(C)(C)C)NC(=O)[C@H](CC(=O)O)NC2=O (stereo partly drawn) [I-2015, Ac-PL3-Asp-Npg-B5-Asn-Thr-Ala-Ala-Tyr-Asn-PyrS2-3Thi-BztA-Gln-NH2]
9 | 703 | CC(=O)N1CCC[C@]12CC=CCCCC1(CCCC=CCCCOC(=O)N3CC[C@@](C(=O)N[C@@H](Cc4ccsc4)C(=O)N[C@@H](Cc4csc5ccccc45)C(=O)N[C@@H](CCC(N)=O)C(N)=O)(C3)NC(=O)[C@H](CC(N)=O)NC(=O)[C@H](Cc3ccc(O)cc3)NC(=O)[C@H](C)NC(=O)[C@H](C)NC(=O)[C@H]([C@@H](C)O)NC(=O)[C@H](CC(N)=O)NC1=O)NC(=O)[C@H](CC(C)(C)C)NC(=O)[C@H](CC(=O)O)NC2=O (stereo partly drawn) [I-2016, Ac-PL3-Asp-Npg-B5-Asn-Thr-Ala-Ala-Tyr-Asn-PyrS2-3Thi-BztA-Gln-NH2]
10 | 2050 | CC(=O)N1CCC[C@]12CC=CCCCC1(CCCC=CCCCOC(=O)N3CC[C@](C(=O)N[C@@H](Cc4ccsc4)C(=O)N[C@@H](Cc4csc5ccccc45)C(=O)N[C@@H](CCC(N)=O)C(N)=O)(C3)NC(=O)[C@H](CC(N)=O)NC(=O)[C@H](Cc3ccccc3)NC(=O)[C@H](C)NC(=O)[C@H](C)NC(=O)[C@H](CC(=O)O)NC(=O)[C@H](CC(=O)O)NC1=O)NC(=O)[C@H](CC(C)(C)C)NC(=O)[C@H](CC(=O)O)NC2=O (stereo partly drawn) [I-2017, Ac-PL3-Asp-Npg-B5-Asp-Asp-Ala-Ala-Phe-Asn-PyrR2-3Thi-BztA-Gln-NH2]
11 | 1680 | CC(=O)N1CCC[C@]12CC=CCCCC1(CCCC=CCCCOC(=O)N3CC[C@](C(=O)N[C@@H](Cc4ccsc4)C(=O)N[C@@H](Cc4csc5ccccc45)C(=O)N[C@@H](CCC(N)=O)C(N)=O)(C3)NC(=O)[C@H](CC(N)=O)NC(=O)[C@H](Cc3ccccc3)NC(=O)[C@H](C)NC(=O)[C@H](C)NC(=O)[C@H](CC(=O)O)NC(=O)[C@H](CC(=O)O)NC1=O)NC(=O)[C@H](CC(C)(C)C)NC(=O)[C@H](CC(=O)O)NC2=O (stereo partly drawn) [I-2018, Ac-PL3-Asp-Npg-B5-Asp-Asp-Ala-Ala-Phe-Asn-PyrR2-3Thi-BztA-Gln-NH2]
12 | 1450 | CC(=O)N1CCC[C@]12CC=CCCCC1(CCCC=CCCCOC(=O)N3CC[C@](C(=O)N[C@@H](Cc4ccsc4)C(=O)N[C@@H](Cc4csc5ccccc45)C(=O)N[C@@H](CCC(N)=O)C(N)=O)(C3)NC(=O)[C@H](CC(C)C)NC(=O)[C@H](Cc3ccccc3)NC(=O)[C@H](C)NC(=O)[C@H](C)NC(=O)[C@H](CC(=O)O)NC(=O)[C@H](CC(=O)O)NC1=O)NC(=O)[C@H](CC(C)(C)C)NC(=O)[C@H](CC(=O)O)NC2=O (stereo partly drawn) [I-2019, Ac-PL3-Asp-Npg-B5-Asp-Asp-Ala-Ala-Phe-Leu-PyrR2-3Thi-BztA-Gln-NH2]
